Assay results as given in the NIST ThermoML archive (doi:10.1016/j.jct.2019.06.005).

Assay: xn = mol fraction of the nth substance listed
Conditions: for surface tension liquid-gas: Maximal bubble pressure; for mass density: 100 kPa, Liquid, Vibrating tube method

COCC[n+]1ccn(C)c1.O=S(=O)([N-]S(=O)(=O)C(F)(F)F)C(F)(F)F + CCO
Conditions | mass density [kg/m3] | surface tension liquid-gas [mN/m]
288.15 K, x1 = 0.1003 | 1055.22 | 24.8
288.15 K, x1 = 0.2 | 1197.64 | 25.9
288.15 K, x1 = 0.2972 | 1285.52 | 27.5
288.15 K, x1 = 0.401 | 1350.45 | 29.3
288.15 K, x1 = 0.5028 | 1396.83 | 31.5
288.15 K, x1 = 0.5982 | 1430.26 | 33.8
288.15 K, x1 = 0.6973 | 1457.78 | 35.8
288.15 K, x1 = 0.8111 | 1483.2 | 38.2
288.15 K, x1 = 0.8991 | 1499.41 | 39.7
288.15 K, x1 = 1 | 1515.3 | 41.4
293.15 K, x1 = 0.1003 | 1050.42 | 24.4
293.15 K, x1 = 0.2 | 1192.63 | 25.5
293.15 K, x1 = 0.2972 | 1280.42 | 27.1
293.15 K, x1 = 0.401 | 1345.31 | 29
293.15 K, x1 = 0.5028 | 1391.67 | 31.3
293.15 K, x1 = 0.5982 | 1425.1 | 33.5
293.15 K, x1 = 0.6973 | 1452.62 | 35.5
293.15 K, x1 = 0.8111 | 1478.06 | 38
293.15 K, x1 = 0.8991 | 1494.28 | 39.5
293.15 K, x1 = 1 | 1510.15 | 41.2
298.15 K, x1 = 0.1003 | 1045.8 | 23.9
298.15 K, x1 = 0.2 | 1187.81 | 25
298.15 K, x1 = 0.2972 | 1275.51 | 26.8
298.15 K, x1 = 0.401 | 1340.28 | 28.7
298.15 K, x1 = 0.5028 | 1386.61 | 31
298.15 K, x1 = 0.5982 | 1420.05 | 33.2
298.15 K, x1 = 0.6973 | 1447.54 | 35.3
298.15 K, x1 = 0.8111 | 1472.95 | 37.7
298.15 K, x1 = 0.8991 | 1489.16 | 39.2
298.15 K, x1 = 1 | 1505.03 | 41
303.15 K, x1 = 0.1003 | 1040.76 | 23.5
303.15 K, x1 = 0.2 | 1182.58 | 24.7
303.15 K, x1 = 0.2972 | 1270.2 | 26.5
303.15 K, x1 = 0.401 | 1335.02 | 28.4
303.15 K, x1 = 0.5028 | 1381.37 | 30.7
303.15 K, x1 = 0.5982 | 1414.81 | 33
303.15 K, x1 = 0.6973 | 1442.35 | 35
303.15 K, x1 = 0.8111 | 1467.8 | 37.5
303.15 K, x1 = 0.8991 | 1484.03 | 39
303.15 K, x1 = 1 | 1499.92 | 40.7
308.15 K, x1 = 0.1003 | 1035.9 | 23.1
308.15 K, x1 = 0.2 | 1177.54 | 24.4
308.15 K, x1 = 0.2972 | 1265.09 | 26.2
308.15 K, x1 = 0.401 | 1329.88 | 28.1
308.15 K, x1 = 0.5028 | 1376.24 | 30.4
308.15 K, x1 = 0.5982 | 1409.68 | 32.7
308.15 K, x1 = 0.6973 | 1437.23 | 34.8
308.15 K, x1 = 0.8111 | 1462.7 | 37.2
308.15 K, x1 = 0.8991 | 1478.94 | 38.8
308.15 K, x1 = 1 | 1494.83 | 40.5
313.15 K, x1 = 0.1003 | 1031.02 | 22.6
313.15 K, x1 = 0.2 | 1172.49 | 24
313.15 K, x1 = 0.2972 | 1259.99 | 25.8
313.15 K, x1 = 0.401 | 1324.76 | 27.8
313.15 K, x1 = 0.5028 | 1371.12 | 30.1
313.15 K, x1 = 0.5982 | 1404.57 | 32.5
313.15 K, x1 = 0.6973 | 1432.14 | 34.5
313.15 K, x1 = 0.8111 | 1457.62 | 37
313.15 K, x1 = 0.8991 | 1473.87 | 38.6
313.15 K, x1 = 1 | 1489.77 | 40.3
318.15 K, x1 = 0.1003 | 1026.12 | 22.3
318.15 K, x1 = 0.2 | 1167.43 | 23.7
318.15 K, x1 = 0.2972 | 1254.88 | 25.5
318.15 K, x1 = 0.401 | 1319.64 | 27.5
318.15 K, x1 = 0.5028 | 1366.01 | 29.9
318.15 K, x1 = 0.5982 | 1399.48 | 32.2
318.15 K, x1 = 0.6973 | 1427.07 | 34.3
318.15 K, x1 = 0.8111 | 1452.56 | 36.8
318.15 K, x1 = 0.8991 | 1468.81 | 38.3
318.15 K, x1 = 1 | 1484.72 | 40.1

COCC[n+]1ccn(C)c1.O=S(=O)([N-]S(=O)(=O)C(F)(F)F)C(F)(F)F + CO
Conditions | mass density [kg/m3] | surface tension liquid-gas [mN/m]
288.15 K, x1 = 0.1004 | 1121.11 | 26.6
288.15 K, x1 = 0.2003 | 1263.18 | 28.5
288.15 K, x1 = 0.2814 | 1330.61 | 29.6
288.15 K, x1 = 0.4004 | 1394.19 | 31.5
288.15 K, x1 = 0.4987 | 1429.08 | 33.1
288.15 K, x1 = 0.5949 | 1454.46 | 34.8
288.15 K, x1 = 0.704 | 1476.43 | 36.9
288.15 K, x1 = 0.8042 | 1492.31 | 38.6
288.15 K, x1 = 0.9003 | 1504.71 | 40.1
288.15 K, x1 = 1 | 1515.3 | 41.4
293.15 K, x1 = 0.1004 | 1116 | 26.2
293.15 K, x1 = 0.2003 | 1257.97 | 28.1
293.15 K, x1 = 0.2814 | 1325.38 | 29.3
293.15 K, x1 = 0.4004 | 1388.96 | 31.1
293.15 K, x1 = 0.4987 | 1423.86 | 32.8
293.15 K, x1 = 0.5949 | 1449.25 | 34.5
293.15 K, x1 = 0.704 | 1471.24 | 36.6
293.15 K, x1 = 0.8042 | 1487.14 | 38.3
293.15 K, x1 = 0.9003 | 1499.56 | 39.8
293.15 K, x1 = 1 | 1510.15 | 41.2
298.15 K, x1 = 0.1004 | 1110.88 | 25.7
298.15 K, x1 = 0.2003 | 1252.76 | 27.7
298.15 K, x1 = 0.2814 | 1320.14 | 28.9
298.15 K, x1 = 0.4004 | 1383.74 | 30.8
298.15 K, x1 = 0.4987 | 1418.64 | 32.5
298.15 K, x1 = 0.5949 | 1444.06 | 34.2
298.15 K, x1 = 0.704 | 1466.08 | 36.4
298.15 K, x1 = 0.8042 | 1481.99 | 38.1
298.15 K, x1 = 0.9003 | 1494.42 | 39.6
298.15 K, x1 = 1 | 1505.03 | 41
303.15 K, x1 = 0.1004 | 1105.74 | 25.2
303.15 K, x1 = 0.2003 | 1247.54 | 27.3
303.15 K, x1 = 0.2814 | 1314.92 | 28.6
303.15 K, x1 = 0.4004 | 1378.52 | 30.5
303.15 K, x1 = 0.4987 | 1413.44 | 32.2
303.15 K, x1 = 0.5949 | 1438.88 | 34
303.15 K, x1 = 0.704 | 1460.92 | 36.1
303.15 K, x1 = 0.8042 | 1476.85 | 37.8
303.15 K, x1 = 0.9003 | 1489.3 | 39.4
303.15 K, x1 = 1 | 1499.92 | 40.7
308.15 K, x1 = 0.1004 | 1100.6 | 24.6
308.15 K, x1 = 0.2003 | 1242.33 | 26.9
308.15 K, x1 = 0.2814 | 1309.69 | 28.2
308.15 K, x1 = 0.4004 | 1373.31 | 30.1
308.15 K, x1 = 0.4987 | 1408.26 | 31.9
308.15 K, x1 = 0.5949 | 1433.72 | 33.7
308.15 K, x1 = 0.704 | 1455.77 | 35.8
308.15 K, x1 = 0.8042 | 1471.73 | 37.6
308.15 K, x1 = 0.9003 | 1484.2 | 39.1
308.15 K, x1 = 1 | 1494.83 | 40.5
313.15 K, x1 = 0.1004 | 1095.44 | 24.2
313.15 K, x1 = 0.2003 | 1237.11 | 26.5
313.15 K, x1 = 0.2814 | 1304.47 | 27.8
313.15 K, x1 = 0.4004 | 1368.12 | 29.9
313.15 K, x1 = 0.4987 | 1403.08 | 31.6
313.15 K, x1 = 0.5949 | 1428.57 | 33.4
313.15 K, x1 = 0.704 | 1450.64 | 35.6
313.15 K, x1 = 0.8042 | 1466.63 | 37.4
313.15 K, x1 = 0.9003 | 1479.12 | 38.9
313.15 K, x1 = 1 | 1489.77 | 40.3
318.15 K, x1 = 0.1004 | 1090.28 | 23.8
318.15 K, x1 = 0.2003 | 1231.89 | 26.1
318.15 K, x1 = 0.2814 | 1299.25 | 27.5
318.15 K, x1 = 0.4004 | 1362.93 | 29.6
318.15 K, x1 = 0.4987 | 1397.92 | 31.4
318.15 K, x1 = 0.5949 | 1423.44 | 33.2
318.15 K, x1 = 0.704 | 1445.47 | 35.4
318.15 K, x1 = 0.8042 | 1461.52 | 37.1
318.15 K, x1 = 0.9003 | 1474.06 | 38.7
318.15 K, x1 = 1 | 1484.72 | 40.1
